Test results as given in paper PMC2191575 (The Journal of Experimental Medicine, 1994).

Columns and labels:
[1] = test system: chimeric human/mouse MHC class II molecules; format: binding
[2] = test system: chimeric MHC class II molecules on splenic B cells; format: cell-based, mouse; conditions: overnight incubation of splenic B cells with recombinant IL-4; data not shown

Molecule | binding to chimeric MHC class II molecules [1] | cell surface level of chimeric MHC class II molecules [2]
OVA (323-339): a peptide that does not bind to DR4Dw4 (ISQAVHAAHAEINEAGR; UniProt P01012 324-340, looked up, fragment) | Binding was not observed | 
myelin basic protein (90-102): DR-restricted synthetic peptide (HLIRLFSRDAPGR; UniProt P02686 90-102, looked up, fragment) | Specific binding was also observed | 
recombinant IL-4: recombinant IL-4 (protein, UniProt P07750 21-140, looked up) Interleukin-4: HIHGCDKNHLREIIGILNEVTGEGTPCTEMDVPNVLTATKNTTESELVCRASKVLRIFYLKHGKTPCLKKNSSVLMELQRLFRAFRCLDSSISCTMNESKSTSLKDFLESLKSIMQMDYS |  | increased by three- to fourfold
